Laboratory results taken from paper PMC7093416, “Selective USP7 inhibition elicits cancer cell killing through a p53-dependent mechanism” (Scientific Reports, 2020).
Like-named read-outs stand apart in the source and are kept apart here. Values belong to the compound of their own block, whether it stands above or below them.

Key:
[1] = system: Ewing Sarcoma, AML, multiple myeloma and rhabdoid cell lines; test: Cell viability (CellTiter-Glo) in individual cell line panels; type: cell-based
Experimental: Cells were plated in 384-well culture-treated plates and allowed to settle overnight. After drug treament and appropriate incubation time, cell viability was assessed using the CellTiter-Glo Luminescent Cell Viability Assay (Promega). Luminescence was read on a Fluostar Omega Reader (BMG Labtech).

BZW2 = biological target: T1, BZW2 (Homo sapiens, UniProt Q9Y6E2); test: XL177A-DTB chemoproteomic profiling with XL177A competition, BZW2; type: binding; conditions: BZW2 reporter ion intensity
T1 construct: endogenous in cells; host or cells: HEK 293AD lysate
T1 sequence (Q9Y6E2 1-419): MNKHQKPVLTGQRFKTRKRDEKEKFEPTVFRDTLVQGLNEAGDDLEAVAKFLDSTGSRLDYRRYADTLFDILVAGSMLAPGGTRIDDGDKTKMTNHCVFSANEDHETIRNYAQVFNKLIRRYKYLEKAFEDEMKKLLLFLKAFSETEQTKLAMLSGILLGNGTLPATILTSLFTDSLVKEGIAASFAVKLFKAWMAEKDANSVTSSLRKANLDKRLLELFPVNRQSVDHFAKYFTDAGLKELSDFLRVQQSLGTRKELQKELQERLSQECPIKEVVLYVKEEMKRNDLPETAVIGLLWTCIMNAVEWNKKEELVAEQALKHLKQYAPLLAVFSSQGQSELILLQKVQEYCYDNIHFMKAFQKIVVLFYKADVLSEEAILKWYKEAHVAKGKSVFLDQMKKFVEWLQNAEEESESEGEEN
Experimental: HEK 293AD cells were lysed as described above, and the lysate was cleared by centrifugation. […] SDS was added to a final concentration of 1.2% (27.2 μL of a 10% stock), and denatured by heating to 80 °C for 5 minutes. After cooling to RT, 1125 μL 1X PBS was added to dilute the final SDS concentration to 0.2%. 50 μL streptavidin agarose slurry was added to each sample, followed by incubation at RT for 3 hours. After streptavidin enrichment, samples were washed vigorously (2×0.2% SDS, 3x PBS, 3x ddH2O). After the final wash, all supernatant was removed using a flat-bottom tip, and the resin was flash frozen and stored at −80 °C until workup for TMT labeling.
To remove rapigest, recovered supernatants were acidified with 10% TFA, incubated at 37 °C for 45 minutes, and centrifuged at 14,000 rpm for 15 minutes at 4 °C. Peptides were then desalted by C18, and dried by vacuum centrifugation. Dried peptides were reconstituted in 50 mM pH8.0 TEAB and labeled with TMT reagent at RT for 1 hour. TMT reactions were pooled and treated with hydroxylamine according to the manufacturer’s instructions. Peptide mixtures were then dried, reconstituted in 50 mM ammonium bicarbonate and desalted by SP3[53]. Eluted peptides were then analyzed by nanoflow LC-MS/MS as described[64] with a NanoAcquity UPLC system (Waters, Milford, MA) interfaced to a QExactive HF mass spectrometer (Thermofisher Scientific, San Jose, CA). TMT labeled peptides were injected onto a precolumn (4 cm POROS 10R2, Applied Biosystems, Framingham, MA), resolved on an analytical column (30 µm I.D. × 50 cm packed with 5 µm Monitor C18) and introduced to the mass spectrometer by ESI (spray voltage = 3.5 kV, flow rate ~30 nL/min). The mass spectrometer was operated in data dependent mode such that the 15 most abundant ions in each MS scan (m/z 300–2000, 120 K resolution, target = 3E6, lock mass for 445.120025 enabled) were subjected to MS/MS (m/z 100–2000, 30 K resolution, target = 1E5, max fill time = 100 ms). Dynamic exclusion was selected with a repeat count of 1 and an exclusion time of 30 seconds. MS/MS data was extracted to.mgf using mulitplierz scripts[54],[55] and searched against a forward-reverse human NCBI refseq database using Mascot version 2.6. Search parameters specified fixed carbamidomethylation of cysteine, fixed N-terminal and lysine TMT labelling, and variable oxidation (methionine). Additional multiplierz scripts were used to filter results to 1% FDR and derive protein-level aggregate reporter ion intensities using peptides mapping uniquely into the genome.

full-length USP7 = biological target: T2, full-length USP7 (Homo sapiens, UniProt Q93009); test: Ub-AMC enzymatic assay, full-length USP7, 6 h pre-incubation; type: biochemical
T2 construct: The constructs encoding USP7 full length (amino acids 1–1102) and catalytic domain (208–560); inferred from Ni-NTA purification; made in house; host or cells: E. coli BL21 (DE3)
T2 sequence (Q93009 whole entry, the tested form may be a part): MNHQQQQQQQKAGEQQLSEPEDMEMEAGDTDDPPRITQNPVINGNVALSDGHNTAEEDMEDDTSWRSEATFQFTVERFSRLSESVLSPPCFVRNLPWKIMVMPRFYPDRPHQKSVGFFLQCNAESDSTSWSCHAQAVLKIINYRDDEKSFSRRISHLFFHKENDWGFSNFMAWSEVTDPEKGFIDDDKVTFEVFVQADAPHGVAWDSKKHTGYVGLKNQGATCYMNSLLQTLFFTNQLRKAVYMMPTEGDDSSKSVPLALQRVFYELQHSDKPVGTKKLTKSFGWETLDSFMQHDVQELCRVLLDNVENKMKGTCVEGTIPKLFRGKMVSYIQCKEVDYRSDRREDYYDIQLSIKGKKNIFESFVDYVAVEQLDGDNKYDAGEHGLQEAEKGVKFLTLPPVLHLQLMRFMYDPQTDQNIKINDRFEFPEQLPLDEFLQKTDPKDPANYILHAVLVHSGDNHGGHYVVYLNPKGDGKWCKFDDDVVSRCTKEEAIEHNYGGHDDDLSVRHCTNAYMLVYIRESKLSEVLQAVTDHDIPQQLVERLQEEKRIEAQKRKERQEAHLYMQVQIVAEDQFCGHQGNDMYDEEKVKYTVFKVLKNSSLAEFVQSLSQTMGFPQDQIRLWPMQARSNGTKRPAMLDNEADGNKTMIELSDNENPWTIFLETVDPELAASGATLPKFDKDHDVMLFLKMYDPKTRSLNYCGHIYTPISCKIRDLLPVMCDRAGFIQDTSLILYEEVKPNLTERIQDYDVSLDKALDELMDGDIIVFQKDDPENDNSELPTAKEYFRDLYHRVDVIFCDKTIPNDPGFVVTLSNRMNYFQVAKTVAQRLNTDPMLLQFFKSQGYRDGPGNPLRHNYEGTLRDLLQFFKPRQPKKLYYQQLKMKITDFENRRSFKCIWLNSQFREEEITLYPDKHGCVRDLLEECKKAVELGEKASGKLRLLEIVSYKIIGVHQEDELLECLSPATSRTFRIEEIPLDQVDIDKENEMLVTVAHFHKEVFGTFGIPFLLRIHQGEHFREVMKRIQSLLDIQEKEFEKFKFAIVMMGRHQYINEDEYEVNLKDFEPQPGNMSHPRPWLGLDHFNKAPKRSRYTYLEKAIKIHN
Experimental: Full length USP7 was tested for its activity in Ubiquitin-AMC assay in presence or absence of inhibitors. USP7 (5 nM) was pre-incubated for 6 hours at room temperature with different concentrations of inhibitors or DMSO as a control in 50 mM HEPES pH 7.5, 0.5 mM EDTA, 11 uM ovalbumin, and 5 mM DTT. Ubiquitin-AMC (Boston Biochem) was then added to a final concentration of 500 nM. The initial rate of the reaction was measured by collecting fluorescence data at one minute intervals over 30-minute period using a Clariostar fluorescence plate reader at excitation and emission wavelength of 345 and 445 nm respectively. The calculated initial rate values were plotted against inhibitor concentrations to determine IC50s. All the experimental data were plotted using Prism GraphPad. All assays for each compound were performed at least twice for each compound.

HDM2-p53 signaling axis = test: Whole cell lysate Western blots of MCF7 cells (HDM2, p53, p21); type: cell-based
[2] = XL177A-DTB pulldown, HEK293AD lysate pre-treated 100nM XL177A
[3] = XL177A-DTB pulldown, HEK293AD lysate pre-treated 1uM XL177A
[4] = XL177A-DTB pulldown, HEK293AD lysate pre-treated 10uM XL177A
[5] = average of Run 1 and Run 2, 100nM XL177A
[6] = average of Run 1 and Run 2, 1uM XL177A
[7] = average of Run 1 and Run 2, 10uM XL177A

Run 1 100nM 1 (BZW2; [2]): 6095061 | Run 1 100nM 2 (BZW2; [2]): 5618739 | Run 1 100nM 3 (BZW2; [2]): 5891848 | Run 2 100nM 1 (BZW2; [2]): 6367486 | Run 2 100nM 2 (BZW2; [2]): 5770311 | Run 2 100nM 3 (BZW2; [2]): 6244557 | Run 1 1uM 1 (BZW2; [3]): 5512643 | Run 1 1uM 2 (BZW2; [3]): 3810437 | Run 1 1uM 3 (BZW2; [3]): 5451627 | Run 2 1uM 1 (BZW2; [3]): 5833621 | Run 2 1uM 2 (BZW2; [3]): 3936167 | Run 2 1uM 3 (BZW2; [3]): 5735390 | Run 1 10uM 1 (BZW2; [4]): 4021260 | Run 1 10uM 2 (BZW2; [4]): 4066194 | Run 2 10uM 1 (BZW2; [4]): 4140296 | Run 2 10uM 2 (BZW2; [4]): 4394498 | AVE 100nM 1 (BZW2; [5]): 6231274 | AVE 100nM 2 (BZW2; [5]): 5694525 | AVE 100nM 3 (BZW2; [5]): 6068202 | AVE 1uM 1 (BZW2; [6]): 5673132 | AVE 1uM 2 (BZW2; [6]): 3873302 | AVE 1uM 3 (BZW2; [6]): 5593508 | AVE 10uM 1 (BZW2; [7]): 4080778 | AVE 10uM 2 (BZW2; [7]): 4230346 | IC50 (full-length USP7; read-out: potency as irreversible inhibitor of USP7): 0.34 nM
Structure (SMILES): CN1CCN(CCC(=O)Nc2ccc3c(=O)n(CC4(O)CCN(C(=O)[C@@H](CCCNC(=O)c5ccc6c(Cl)c7c(nc6c5)CCCC7)Cc5ccccc5)CC4)cnc3c2)CC1 [XL177A]
TP53-WT cell lines sensitive [1]: 9 out of 10 | TP53-mutant cell lines sensitive [1]: 1 out of 17 | p53 and p21 protein levels (HDM2-p53 signaling axis): increases in p53 and downstream p21 protein levels | time to degradation of HDM2 (HDM2-p53 signaling axis): ≤ 2 h

IC50 (full-length USP7; Ub-AMC, 6-hour pre-treatment, read-out: IC50): 340 nM
Structure (SMILES): CN1CCN(CCC(=O)Nc2ccc3c(=O)n(CC4(O)CCN(C(=O)[C@H](CCCNC(=O)c5ccc6c(Cl)c7c(nc6c5)CCCC7)Cc5ccccc5)CC4)cnc3c2)CC1 [XL177B]
less potent than XL177A in the cell lines tested [1]: ~ 100 fold | effects on HDM2-p53 signaling and cell cycle (HDM2-p53 signaling axis; negative control): did not exert any of the same effects except at 10 μM
